US20250304596A1, “PYRAZINE DERIVATIVES AND USES THEREOF” (FOGHORN THERAPEUTICS INC., priority 2022, published 2025)

What was measured:
[1] = molecular target: T1, HiBit-BRG1 fusion protein (Homo sapiens, UniProt P51532); assay: HiBiT-BRG1 cell-based degradation assay (Nano-Glo HiBiT Lytic Detection, 24 h); conditions: stable HeLa cell line expressing HiBit-BRG1 and LgBit; for Dmax: read-out: BRG1 HiBit Degradation Maximum (%); for DC50: read-out: BRMG1 HiBit Degradation IC50
T1 construct: expressed in transfected cells
T1 sequence (P51532 whole entry, the tested form may be a part): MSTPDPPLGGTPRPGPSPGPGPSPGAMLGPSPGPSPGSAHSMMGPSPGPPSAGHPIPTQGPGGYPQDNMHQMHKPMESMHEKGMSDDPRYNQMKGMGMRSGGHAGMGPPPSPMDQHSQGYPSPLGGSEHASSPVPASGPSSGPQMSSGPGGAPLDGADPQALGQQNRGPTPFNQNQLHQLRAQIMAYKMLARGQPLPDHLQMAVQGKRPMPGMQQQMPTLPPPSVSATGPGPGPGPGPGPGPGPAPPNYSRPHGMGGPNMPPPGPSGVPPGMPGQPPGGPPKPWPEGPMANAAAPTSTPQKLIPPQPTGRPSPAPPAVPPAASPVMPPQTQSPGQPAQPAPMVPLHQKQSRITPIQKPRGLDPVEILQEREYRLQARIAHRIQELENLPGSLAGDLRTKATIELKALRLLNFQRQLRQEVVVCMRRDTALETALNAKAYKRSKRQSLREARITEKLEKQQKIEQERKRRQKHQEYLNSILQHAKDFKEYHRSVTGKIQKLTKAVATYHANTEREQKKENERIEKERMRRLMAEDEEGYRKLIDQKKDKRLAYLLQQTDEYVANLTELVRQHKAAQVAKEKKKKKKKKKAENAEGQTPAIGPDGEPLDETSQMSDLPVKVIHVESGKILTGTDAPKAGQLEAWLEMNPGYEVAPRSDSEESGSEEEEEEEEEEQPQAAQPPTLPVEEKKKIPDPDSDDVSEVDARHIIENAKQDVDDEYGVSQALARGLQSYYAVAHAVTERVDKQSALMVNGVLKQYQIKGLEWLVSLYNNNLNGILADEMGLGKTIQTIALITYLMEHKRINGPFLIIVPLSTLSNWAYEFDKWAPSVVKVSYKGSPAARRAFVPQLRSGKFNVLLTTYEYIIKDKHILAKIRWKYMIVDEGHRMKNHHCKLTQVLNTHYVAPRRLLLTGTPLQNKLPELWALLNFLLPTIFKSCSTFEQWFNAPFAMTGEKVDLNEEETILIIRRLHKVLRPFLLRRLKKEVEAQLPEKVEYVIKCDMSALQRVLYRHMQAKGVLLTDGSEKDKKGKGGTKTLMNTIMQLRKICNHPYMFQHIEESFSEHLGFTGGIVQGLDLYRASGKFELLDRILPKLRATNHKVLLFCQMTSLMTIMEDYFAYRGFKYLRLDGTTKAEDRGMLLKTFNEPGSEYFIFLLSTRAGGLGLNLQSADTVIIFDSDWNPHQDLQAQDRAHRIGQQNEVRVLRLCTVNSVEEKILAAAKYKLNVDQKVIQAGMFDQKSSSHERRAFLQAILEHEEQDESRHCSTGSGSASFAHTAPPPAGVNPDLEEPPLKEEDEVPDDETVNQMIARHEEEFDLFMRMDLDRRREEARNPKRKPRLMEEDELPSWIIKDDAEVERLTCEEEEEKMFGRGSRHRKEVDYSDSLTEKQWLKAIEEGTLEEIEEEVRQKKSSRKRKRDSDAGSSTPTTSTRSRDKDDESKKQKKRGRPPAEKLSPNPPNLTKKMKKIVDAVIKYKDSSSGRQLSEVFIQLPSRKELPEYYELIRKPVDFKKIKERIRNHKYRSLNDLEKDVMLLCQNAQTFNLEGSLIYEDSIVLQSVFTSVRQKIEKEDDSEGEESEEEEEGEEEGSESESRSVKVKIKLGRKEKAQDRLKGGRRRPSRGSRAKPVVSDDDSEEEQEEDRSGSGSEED
How it was run: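 HeLa cells stably expressing HiBit-BRG1 and LgBit, treated 24 h with 3-fold dilutions (10 points, duplicate, 30 μM final top dose). Luminescence read after Nano-Glo HiBiT lytic reagent; % degradation scaled between DMSO (high) and 2 μM reference BRM/BRG1 degrader (low control).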

HiBit-BRM fusion protein = molecular target: T2, HiBit-BRM fusion protein (Homo sapiens, UniProt P51531); assay: HiBiT-BRM cell-based degradation assay (Nano-Glo HiBiT Lytic Detection, 24 h); conditions: stable HeLa cell line expressing HiBiT-BRM; for DC50: read-out: BRM HiBit Degradation IC50
T2 construct: expressed in transfected cells
T2 sequence (P51531 whole entry, the tested form may be a part): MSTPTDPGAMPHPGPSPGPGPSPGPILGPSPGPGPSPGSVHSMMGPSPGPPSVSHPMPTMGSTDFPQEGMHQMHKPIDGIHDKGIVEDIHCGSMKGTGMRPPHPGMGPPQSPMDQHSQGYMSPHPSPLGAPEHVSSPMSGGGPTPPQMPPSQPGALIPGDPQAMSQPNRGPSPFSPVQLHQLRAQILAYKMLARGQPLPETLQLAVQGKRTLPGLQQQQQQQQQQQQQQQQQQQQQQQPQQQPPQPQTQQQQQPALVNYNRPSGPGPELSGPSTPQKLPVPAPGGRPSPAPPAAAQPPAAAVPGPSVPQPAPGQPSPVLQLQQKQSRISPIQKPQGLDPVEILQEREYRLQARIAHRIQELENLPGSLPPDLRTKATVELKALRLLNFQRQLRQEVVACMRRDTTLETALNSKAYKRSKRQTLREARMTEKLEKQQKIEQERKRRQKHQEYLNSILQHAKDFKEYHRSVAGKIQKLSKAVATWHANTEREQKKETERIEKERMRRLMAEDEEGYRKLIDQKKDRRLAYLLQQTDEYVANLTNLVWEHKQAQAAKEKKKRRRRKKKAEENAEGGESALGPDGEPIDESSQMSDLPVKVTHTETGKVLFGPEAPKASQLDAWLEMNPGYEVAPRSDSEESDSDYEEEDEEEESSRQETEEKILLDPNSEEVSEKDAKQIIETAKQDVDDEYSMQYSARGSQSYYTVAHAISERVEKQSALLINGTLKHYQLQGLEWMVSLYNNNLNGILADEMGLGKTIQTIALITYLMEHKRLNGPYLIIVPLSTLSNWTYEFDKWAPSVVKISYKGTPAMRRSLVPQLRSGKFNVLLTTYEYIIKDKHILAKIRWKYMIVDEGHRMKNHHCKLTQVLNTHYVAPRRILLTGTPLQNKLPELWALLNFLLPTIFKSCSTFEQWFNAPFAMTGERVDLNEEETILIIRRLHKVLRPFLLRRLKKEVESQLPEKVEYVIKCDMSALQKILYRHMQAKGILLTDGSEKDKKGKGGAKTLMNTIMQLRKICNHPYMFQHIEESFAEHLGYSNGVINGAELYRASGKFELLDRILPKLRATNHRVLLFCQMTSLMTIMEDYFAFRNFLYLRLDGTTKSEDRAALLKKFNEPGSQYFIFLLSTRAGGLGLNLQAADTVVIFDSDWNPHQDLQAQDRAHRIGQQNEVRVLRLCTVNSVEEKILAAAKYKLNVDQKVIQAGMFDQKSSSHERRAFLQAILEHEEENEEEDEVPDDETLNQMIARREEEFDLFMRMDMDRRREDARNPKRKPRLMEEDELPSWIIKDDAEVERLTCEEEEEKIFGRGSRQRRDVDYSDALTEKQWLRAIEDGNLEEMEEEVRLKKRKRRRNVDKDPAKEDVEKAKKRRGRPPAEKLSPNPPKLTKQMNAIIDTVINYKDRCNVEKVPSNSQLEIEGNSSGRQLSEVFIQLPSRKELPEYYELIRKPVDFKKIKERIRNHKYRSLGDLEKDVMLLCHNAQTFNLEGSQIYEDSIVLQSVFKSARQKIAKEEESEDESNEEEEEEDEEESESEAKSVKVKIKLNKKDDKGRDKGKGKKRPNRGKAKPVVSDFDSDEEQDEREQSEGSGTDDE
How it was run: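 A stable HeLa line expressing HiBiT-BRM was treated for 24 h with compound in a 10-point, 3-fold series (30 μM final top dose). Remaining HiBiT-BRM was read by lytic LgBiT complementation luminescence. % degradation was normalised to DMSO (high control) and 2 μM reference BRM/BRG1 degrader (low control).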

Row | Dmax [1] | DC50 [1] | DC50 (HiBit-BRM fusion protein) | Structure (SMILES) | BRM HiBit Degradation Maximum (%) (HiBit-BRM fusion protein)
1 | < 50% |  | > 10 nM | Cc1nc(N2CC[C@@H](c3sc4nnc(-c5ccccc5O)cc4c3C)C2)ccc1-c1cc([C@H](C(=O)N2C[C@H](O)C[C@H]2C(=O)N[C@@H](C)c2ccc(-c3scnc3C)cc2)C(C)C)on1 [Compound 94, (2S,4R)-4-hydroxy-1-((R)-2-(3-(6-((R)-3-(3-(2-hydroxyphenyl)-5-methylthieno[2,3-c]pyridazin-6-yl)pyrrolidin-1-yl)-2-methylpyridin-3-yl)isoxazol-5-yl)-3-methylbutanoyl)-N-((S)-1-(4-(4-methylthiazol-5-yl)phenyl)ethyl)pyrrolidine-2-carboxamide] | A (“A” indicates maximum degradation ≥75%)
2 | < 50% |  | < 10 nM | Cc1ncsc1-c1ccc([C@H](C)NC(=O)[C@@H]2C[C@@H](O)CN2C(=O)[C@@H](c2cc(N3CC4(C3)CN(c3cc5cc(-c6ccccc6O)nnc5s3)C4)no2)C(C)C)cc1 [Compound 68, (2S,4R)-4-hydroxy-1-((R)-2-(3-(6-(3-(2-hydroxyphenyl)thieno[2,3-c]pyridazin-6-yl)-2,6-diazaspiro[3.3]heptan-2-yl)isoxazol-5-yl)-3-methylbutanoyl)-N-((S)-1-(4-(4-methylthiazol-5-yl)phenyl)ethyl)pyrrolidine-2-carboxamide] | A (“A” indicates maximum degradation ≥75%)
3 | < 50% |  | < 10 nM | Cc1ncsc1-c1ccc([C@H](C)NC(=O)[C@@H]2C[C@@H](O)CN2C(=O)[C@@H](c2cc(N3CC4(C3)CN(c3sc5nnc(-c6ccccc6O)cc5c3C3CC3)C4)no2)C(C)C)cc1 [Compound 71, (2S,4R)-1-((R)-2-(3-(6-(5-cyclopropyl-3-(2-hydroxyphenyl)thieno[2,3-c]pyridazin-6-yl)-2,6-diazaspiro[3.3]heptan-2-yl)isoxazol-5-yl)-3-methylbutanoyl)-4-hydroxy-N—((S)-1-(4-(4-methylthiazol-5-yl)phenyl)ethyl)pyrrolidine-2-carboxamide] | A (“A” indicates maximum degradation ≥75%)
4 | < 50% |  | < 10 nM | Cc1ncsc1-c1ccc([C@H](C)NC(=O)[C@@H]2C[C@@H](O)CN2C(=O)C(c2cc(N3CC4(C3)CN(c3cc5nnc(-c6ccccc6O)cc5s3)C4)no2)C(C)C)cc1 (stereo partly drawn) [Compound 67, (2S,4R)-4-hydroxy-1-(2-(3-(6-(3-(2-hydroxyphenyl)thieno[3,2-c]pyridazin-6-yl)-2,6-diazaspiro[3.3]heptan-2-yl)isoxazol-5-yl)-3-methylbutanoyl)-N-((S)-1-(4-(4-methylthiazol-5-yl)phenyl)ethyl)pyrrolidine-2-carboxamide] | A (“A” indicates maximum degradation ≥75%)
5 | < 50% |  | > 10 nM | Cc1ncsc1-c1ccc([C@H](C)NC(=O)[C@@H]2C[C@@H](O)CN2C(=O)[C@@H](c2cc(-c3ccnc(N4CC[C@@H](c5cc6nnc(-c7ccccc7O)cc6s5)C4)n3)no2)C(C)C)cc1 [Compound 83, (2S,4R)-4-hydroxy-1-((R)-2-(3-(2-((R)-3-(3-(2-hydroxyphenyl)thieno[3,2-c]pyridazin-6-yl)pyrrolidin-1-yl)pyrimidin-4-yl)isoxazol-5-yl)-3-methylbutanoyl)-N-((S)-1-(4-(4-methylthiazol-5-yl)phenyl)ethyl)pyrrolidine-2-carboxamide] | A (“A” indicates maximum degradation ≥75%)
6 | < 50% |  | > 10 nM | Cc1cc(N2CC[C@@H](c3sc4nnc(-c5ccccc5O)cc4c3C)C2)ncc1-c1cc([C@H](C(=O)N2C[C@H](O)C[C@H]2C(=O)N[C@@H](C)c2ccc(-c3scnc3C)cc2)C(C)C)on1 [Compound 96, (2S,4R)-4-hydroxy-1-((R)-2-(3-(6-((R)-3-(3-(2-hydroxyphenyl)-5-methylthieno[2,3-c]pyridazin-6-yl)pyrrolidin-1-yl)-4-methylpyridin-3-yl)isoxazol-5-yl)-3-methylbutanoyl)-N-((S)-1-(4-(4-methylthiazol-5-yl)phenyl)ethyl)pyrrolidine-2-carboxamide] | B (“B” indicates maximum degradation ≥50%)

Second part, the compound before the results:

Row | Structure (SMILES) | Dmax [1] | DC50 [1] | DC50 (HiBit-BRM fusion protein) | BRM HiBit Degradation Maximum (%) (HiBit-BRM fusion protein)
7 | Cc1ncsc1-c1ccc([C@H](C)NC(=O)[C@@H]2C[C@@H](O)CN2C(=O)[C@@H](c2cc(-c3ccc(N4CC(c5cc6cc(-c7ccccc7O)nnc6s5)C4)nn3)no2)C(C)C)cc1 [Compound 24, (2S,4R)-4-hydroxy-1-((R)-2-(3-(6-(3-(3-(2-hydroxyphenyl)thieno[2,3-c]pyridazin-6-yl)azetidin-1-yl)pyridazin-3-yl)isoxazol-5-yl)-3-methylbutanoyl)-N-((S)-1-(4-(4-methylthiazol-5-yl)phenyl)ethyl)pyrrolidine-2-carboxamide] | > 50% | > 100 nM | > 10 nM | A (“A” indicates maximum degradation ≥75%)
8 | Cc1ncsc1-c1ccc([C@H](C)NC(=O)[C@@H]2C[C@@H](O)CN2C(=O)[C@@H](c2cc(-c3cnc(N4CC[C@H](c5cc6cc(-c7ccccc7O)nnc6s5)C4)nc3)no2)C(C)C)cc1 [Compound 6, (2S,4R)-4-hydroxy-1-((R)-2-(3-(2-((S)-3-(3-(2-hydroxyphenyl)thieno[2,3-c]pyridazin-6-yl)pyrrolidin-1-yl)pyrimidin-5-yl)isoxazol-5-yl)-3-methylbutanoyl)-N-((S)-1-(4-(4-methylthiazol-5-yl)phenyl)ethyl)pyrrolidine-2-carboxamide] | < 50% | > 1000 nM | < 10 nM | A (“A” indicates maximum degradation ≥75%)
9 | Cc1ncsc1-c1ccc([C@H](C)NC(=O)[C@@H]2C[C@@H](O)CN2C(=O)[C@@H](c2cc(-c3cnc(N4CCC5(CC4)CC(c4sc6nnc(-c7ccccc7O)cc6c4C)C5)nc3)no2)C(C)C)cc1 [Compound 48, (2S,4R)-4-hydroxy-1-((R)-2-(3-(2-(2-(3-(2-hydroxyphenyl)-5-methylthieno[2,3-c]pyridazin-6-yl)-7-azaspiro[3.5]nonan-7-yl)pyrimidin-5-yl)isoxazol-5-yl)-3-methylbutanoyl)-N-((S)-1-(4-(4-methylthiazol-5-yl)phenyl)ethyl)pyrrolidine-2-carboxamide] | < 50% | > 1000 nM | > 10 nM | A (“A” indicates maximum degradation ≥75%)
10 | Cc1ncsc1-c1ccc([C@H](C)NC(=O)[C@@H]2C[C@@H](O)CN2C(=O)[C@@H](c2cc(N3CCC4(CC3)CC(c3sc5nnc(-c6ccccc6O)cc5c3C)C4)no2)C(C)C)cc1 [Compound 45, (2S,4R)-4-hydroxy-1-((R)-2-(3-(2-(3-(2-hydroxyphenyl)-5-methylthieno[2,3-c]pyridazin-6-yl)-7-azaspiro[3.5]nonan-7-yl)isoxazol-5-yl)-3-methylbutanoyl)-N-((S)-1-(4-(4-methylthiazol-5-yl)phenyl)ethyl)pyrrolidine-2-carboxamide] | < 50% | > 1000 nM | > 10 nM | A (“A” indicates maximum degradation ≥75%)
11 | Cc1ncsc1-c1ccc([C@H](C)NC(=O)[C@@H]2C[C@@H](O)CN2C(=O)[C@@H](c2cc(-c3c(C)nc(N4CCC(c5sc6nnc(-c7ccccc7O)cc6c5C)CC4)nc3C)no2)C(C)C)cc1 [Compound 11, (2S,4R)-4-hydroxy-1-((R)-2-(3-(2-(4-(3-(2-hydroxyphenyl)-5-methylthieno[2,3-c]pyridazin-6-yl)piperidin-1-yl)-4,6-dimethylpyrimidin-5-yl)isoxazol-5-yl)-3-methylbutanoyl)-N-((S)-1-(4-(4-methylthiazol-5-yl)phenyl)ethyl)pyrrolidine-2-carboxamide] | > 50% | > 10 nM | < 10 nM | A (“A” indicates maximum degradation ≥75%)
12 | Cc1ncsc1-c1ccc([C@H](C)NC(=O)[C@@H]2C[C@@H](O)CN2C(=O)[C@@H](c2cc(N3CCC(c4sc5nnc(-c6ccccc6O)cc5c4C)CC3)no2)C(C)C)cc1 [Compound 56, (2S,4R)-4-hydroxy-1-((R)-2-(3-(4-(3-(2-hydroxyphenyl)-5-methylthieno[2,3-c]pyridazin-6-yl)piperidin-1-yl)isoxazol-5-yl)-3-methylbutanoyl)-N-((S)-1-(4-(4-methylthiazol-5-yl)phenyl)ethyl)pyrrolidine-2-carboxamide] | < 50% | > 1000 nM | > 10 nM | B (“B” indicates maximum degradation ≥50%)
13 | Cc1ncsc1-c1ccc([C@H](C)NC(=O)[C@@H]2C[C@@H](O)CN2C(=O)[C@@H](c2cc(-c3cnc(N4C[C@H]5C[C@@H](C4)[C@H]5c4cc5cc(-c6ccccc6O)nnc5s4)nc3)no2)C(C)C)cc1 [Compound 15, (2S,4R)-4-hydroxy-1-((R)-2-(3-(2-((1R,5S,6S)-6-(3-(2-hydroxyphenyl)thieno[2,3-c]pyridazin-6-yl)-3-azabicyclo[3.1.1]heptan-3-yl)pyrimidin-5-yl)isoxazol-5-yl)-3-methylbutanoyl)-N-((S)-1-(4-(4-methylthiazol-5-yl)phenyl)ethyl)pyrrolidine-2-carboxamide] | < 50% | > 1000 nM | > 100 nM | B (“B” indicates maximum degradation ≥50%)
